According to paper PMC10676384, “Core-dependent post-translational modifications guide the biosynthesis of a new class of hypermodified peptides” (Nature Communications, 2023):

Test system: CcaF
Assay: In vitro CcaF leader peptide removal assay
Assay type: biochemical, Chryseobacterium carnipullorum DSM25581
Conditions: substrate:CcaF 100:1 to 20:1; 50 mM Tris-HCl pH 8.0, RT overnight; MALDI-TOF MS
Text: To identify the position of each modification and characterize the final product, the leader peptide must be excised. To this end, we focused on the putative peptidase CcaF. The sequence of CcaF is annotated as a S8 (subtilisin type) serine protease and contains a classical Asp-His-Ser catalytic triad. Recombinant CcaF was heterologously expressed in E. coli BL21(DE3) and purified as a polyHis-tagged protein (Supplementary Fig. 7). […] Given the structural divergence amongst these modified peptides, CcaF appears to be a protease with a broad substrate scope.
The leader peptide was removed by protease CcaF. The reactions were performed in a 1.5 mL eppendorf tube with optimized ratio (100:1 to 20:1) of different substrates and CcaF in 50 mM Tris-HCl (pH =8.0) buffer at RT overnight. The substrates are different modified full length precursor peptide and synthetic 10-mer peptide. The reaction was monitored by MALDI-TOF MS, if the digestion was not completed, another 50:1 ratio CcaF protease was added and stay at RT for another 8 hours.

Sequence: DELSATAAAA [10-mer peptide]
- cleavage by protease CcaF: digested at the expected position
